Data reported in publication PMC10445491 (Frontiers in Chemistry, 2023).
“Also recorded” adds a separate entry of the source. Read-outs that look alike come from different tables or passages of the source.

Key:
[1] = system: neuraminidase from Clostridium perfringens (BNA, EC 3.2.1.18); assay type: biochemical; details: for fold higher inhibition than compound 6: ratio of IC50 vs compound 6
[2] = target: neuraminidase from Clostridium perfringens (BNA); assay type: biochemical; details: for Kinetic mode: Lineweaver-Burk and Dixon plots
[3] = target: neuraminidase from Clostridium perfringens (BNA) (Clostridium perfringens, UniProt P10481); assay type: binding
neuraminidase from Clostridium perfringens (BNA) (Clostridium perfringens, UniProt P10481), sequence (P10481 whole entry, looked up): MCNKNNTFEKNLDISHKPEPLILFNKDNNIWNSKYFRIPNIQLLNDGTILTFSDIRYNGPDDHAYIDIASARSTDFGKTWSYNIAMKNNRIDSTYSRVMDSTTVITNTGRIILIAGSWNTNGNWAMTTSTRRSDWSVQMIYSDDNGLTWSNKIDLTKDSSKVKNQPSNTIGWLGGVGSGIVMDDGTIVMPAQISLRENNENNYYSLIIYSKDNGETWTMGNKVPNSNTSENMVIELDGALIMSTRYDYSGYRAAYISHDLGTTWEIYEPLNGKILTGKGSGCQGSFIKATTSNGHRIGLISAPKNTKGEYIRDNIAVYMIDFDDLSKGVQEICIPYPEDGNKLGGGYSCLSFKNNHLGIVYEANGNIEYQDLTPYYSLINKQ

[4] = sodium acetate buffer pH 5.0, substrate 100 μM, BNA 0.02 unit/mL, triplicate, read-out: IC50
[5] = Dixon plots, read-out: K i (inhibition constant)

Row | Compound | fold higher inhibition than compound 6 [1] [fold] | IC50 [1, 4] [µM] | Ki [2, 5] [µM] | Kinetic mode [2] | K A (affinity constant) [3] [L/mol] | K SV (Stern-Volmer constant) [3] [L/mol] | n (binding number of xanthone to the BNA) [3] | fold more effective relative to gentisein ([1]; ratio of IC50 vs gentisein) [fold] | IC50 ([1]; text in the panels of supplementary Figure S36, read-out: IC50 printed in Figure S36) [µM] | Change of BNA fluorescence (FS) intensity with increasing inhibitor concentration [3] | fold more effective than compound 3 ([1]; ratio of IC50 vs compound 3) [fold] | Time-dependent (slow-binding) behaviour ([2]; preincubation 0-75 min) | Reversibility of inhibition ([2]; residual activity vs enzyme concentration (0.01, 0.02, 0.04 unit/mL)) | k 3 ([2]; slow-binding inhibition, forward rate of enzyme-inhibitor complex formation) [M⁻¹ s⁻¹] | Ki ([2]; slow-binding inhibition, preincubation with 0, 0.2, 0.4, 0.8 µM inhibitor, read-out: K i app) [µM] | k 4 ([2]; slow-binding inhibition, reverse rate) [min⁻¹]
1 | C=C(C)CC(O)c1c(O)c(C/C=C(\C)CCC=C(C)C)c2oc3ccc(O)cc3c(=O)c2c1O (stereo not shown) [Compound 4, cratoxanthone A] | 3 | 3.8 ± 0.1 | 4.2 | Non-competitive | 55450 | 27140 | 0.7819 | – | – | – | – | – | – | – | – | –
2 | CC(C)=CCC/C(C)=C/Cc1c(O)c(CC=C(C)C)c(O)c2c(=O)c3cc(O)ccc3oc12 [Compound 6, cochinechinone A] | – | 9.8 ± 0.3 | 9.6 | non-competitive inhibitor | 1800 | 9860 | 0.4337 | 2 | – | – | – | – | – | – | – | –
3 | O=c1c2cc(O)ccc2oc2cc(O)cc(O)c12 [Gentisein, reference compound] | – | 21.4 ± 0.5 | – | – | 110 | 5350 | 0.3701 | – | 21.4 | – | – | – | – | – | – | –
4 | (E)-1,3,7-trihydroxy-4-(7-hydroxy-3,7-dimethyloct-2-en-1-yl)-2-(3-methylbut-2-en-1-yl)-9H-xanthen-9-one [Compound 2] | – | 38.9 ± 0.6 | 40.7 | Non-competitive | 20 | 970 | 0.1796 | – | – | did not decrease | – | – | – | – | – | –
5 | CC(C)=CCc1c(O)c(C/C=C(\C)C/C=C/C(C)(C)O)c2oc3ccc(O)cc3c(=O)c2c1O [Compound 3, 1,3,7-trihydroxy-4-[(2E,5E)-7-hydroxy-3,7-dimethylocta-2,5-dien-1-yl]-2-(3-methylbut-2-en-1-yl)-9H-xanthen-9-one] | – | 35.8 ± 0.7 | 38.2 | Non-competitive | 20 | 1000 | 0.2168 | – | – | – | – | – | – | – | – | –
6 | C=C(CCC=C(C)C)C(O)Cc1c(O)c(CC=C(C)C)c(O)c2c(=O)c3cc(O)ccc3oc12 (stereo not shown) [Compound 5, cratoxanthon F] | – | 9.2 ± 0.2 | 9.1 | Non-competitive | 1030 | 10230 | 0.4992 | – | – | – | – | – | – | – | – | –
7 | C=C(C)C(O)CC/C(C)=C/Cc1c(O)c(CC=C(C)C)c(O)c2c(=O)c3cc(O)ccc3oc12 (stereo not shown) [Compound 1, (E)-1,3,7-trihydroxy-4-(6-hydroxy-3,7-dimethylocta-2,7-dien-1-yl)-2-(3-methylbut-2-en-1-yl)-9H-xanthen-9-one] | 30 | 0.38 ± 0.03 | 0.17 | competitive inhibitor | 244300 | 157920 | 1.2897 | – | – | decreased dramatically | 100 | reversible slow-binding inhibition; also recorded: simple slow-binding inhibitor; also recorded: simple reversible slow binding behavior | reversible inhibitor | 141000 | 0.144 | 0.0203
